Columns and labels:
MMP-1 = molecular target: T1, MMP-1 (Homo sapiens, UniProt P03956); experiment: MMP inhibiting activity, fluorescence assay; assay type: biochemical; settings: read-out: Enzyme inhibiting constant IC50 MMP-1
T1 sequence (P03956 100-469): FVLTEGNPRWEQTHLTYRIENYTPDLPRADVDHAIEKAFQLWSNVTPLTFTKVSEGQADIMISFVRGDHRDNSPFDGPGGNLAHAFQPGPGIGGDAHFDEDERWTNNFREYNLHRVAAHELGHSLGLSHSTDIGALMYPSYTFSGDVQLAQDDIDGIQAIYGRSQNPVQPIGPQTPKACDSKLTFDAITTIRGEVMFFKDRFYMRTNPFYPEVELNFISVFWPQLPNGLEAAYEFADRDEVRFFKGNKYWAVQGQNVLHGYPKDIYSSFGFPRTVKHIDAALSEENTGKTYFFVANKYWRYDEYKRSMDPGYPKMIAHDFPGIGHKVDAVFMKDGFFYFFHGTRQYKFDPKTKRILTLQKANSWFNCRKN
Experimental: (§1) Inhibitory activities of all the enzymes were measured similarly to the MMP-2 activity measuring method shown below. Prior to measuring, proMMP-2 was treated with 1 mM p-aminophenyl mercuricacetate at 37° C. for 45 minutes to activate it. The ProMMP-9 was activated to an enzyme with MMP-3, and stored at −80° C. until used.
(§2) MMP activities were measured by fluorescence assay by changing a microtiter plate formate according to the reported method (Knight, C. G., Willenbrock, F., Murphy, G. A., FEBS Lett. 1992, 296, 263-266). On a dynatech MicroFLUOR plate, a buffer solution comprising 50 Mm Tris-HCl pH 7.5, 10 mM CaCl2, 0.15 M NaCl, 0.05% Brij, and 1-8 μM of a substrate (Mca-Pro-Leu-Gly-Leu-Dpa-Ala-Arg-NH2), and various concentrations of inhibitors were introduced, and it was reacted with activated enzymes at 37° C. for 20-30 minutes. Reaction was terminated by putting the reactant in 50 mM EDTA, and then fluorescence was measured with a spectrofluorometer attached to a microplate reader (λex 328 nm, λ em 393 nm). The inhibiting activity degree was indicated by an IC50 value, which is a concentration inhibiting activity by 50% compared to the control.

MMP-13 = MMP-13 (Homo sapiens, UniProt P45452); experiment: MMP inhibiting activity, fluorescence assay; assay type: biochemical; settings: read-out: Enzyme inhibiting constant IC50 MMP-13
Experimental: as §1, §2

MMP-2 = molecular target: T2, MMP-2 (Homo sapiens, UniProt P08253); experiment: MMP inhibiting activity, fluorescence assay; assay type: biochemical; settings: read-out: Enzyme inhibiting constant IC50 MMP-2
T2 sequence (P08253 110-660): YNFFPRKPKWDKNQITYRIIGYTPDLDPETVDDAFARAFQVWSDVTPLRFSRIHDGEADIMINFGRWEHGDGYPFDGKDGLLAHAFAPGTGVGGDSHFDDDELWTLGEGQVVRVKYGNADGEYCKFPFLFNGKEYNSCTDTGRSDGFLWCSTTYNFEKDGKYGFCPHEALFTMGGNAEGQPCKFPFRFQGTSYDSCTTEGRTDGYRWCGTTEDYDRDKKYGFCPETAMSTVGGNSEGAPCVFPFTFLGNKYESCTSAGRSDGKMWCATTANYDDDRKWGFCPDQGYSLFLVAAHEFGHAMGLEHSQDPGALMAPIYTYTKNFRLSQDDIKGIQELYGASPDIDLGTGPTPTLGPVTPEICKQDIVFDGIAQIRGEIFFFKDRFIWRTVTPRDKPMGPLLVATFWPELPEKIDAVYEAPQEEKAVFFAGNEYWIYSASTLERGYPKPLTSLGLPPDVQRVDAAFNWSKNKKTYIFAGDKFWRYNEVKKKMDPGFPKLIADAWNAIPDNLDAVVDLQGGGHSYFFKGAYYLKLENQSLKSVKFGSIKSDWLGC
Experimental: as §1, §2

[1] = tested on: HUVEC (human umbilical vein endothelial cell) cells; experiment: Tube formation activity on matrigel; assay type: cell-based; parameters: key: −: control; ±: tube almost resembles control; +: inhibition; ++: significant inhibition; +++: complete inhibition; settings: 16-24 hours
Experimental: In a culture flask previously coated with gelatin, HUVEC (human umbilical vein endothelial cell) cells cultured with a M199 medium (containing 20% FBS, 3 ng/ml bFGF, 100 μg/ml heparin) were treated with trypsin/EDTA, and then number of cells are counted so that number of cells may be 2×10^4 cells/well in a 96-well plate previously coated with matrigel. Samples were then added and cultured in a CO2 culture medium at 37° C. for 16-24 hours.

| Molecule | IC50 (MMP-1) [nM] | IC50 (MMP-13) [nM] | IC50 (MMP-2) [nM] | Tube Formation ([1]; concentration 5 μM) | Tube Formation ([1]; concentration 50 μM) | Tube Formation ([1]; concentration 100 μM) | Tube Formation ([1]; concentration 0.5 μM) |
| --- | --- | --- | --- | --- | --- | --- | --- |
| 1-(4-Methoxy-benzenesulfonyl)-4-methyl-5-oxo-piperazine-2-hydroxamate [Example 25] | 82 | 16 | 3 | − | − | + |  |
| 1-(4-Methoxy-benzenesulfonyl)-5-oxo-4-prop-2-ynyl-piperazine-2-hydroxamate [Example 23] |  |  |  | + | ++ | +++ |  |
| 1-Cyclopropyl-5-hydroxymethyl-4-(4-methoxy-benzenesulfonyl)-5-oxo-piperazin-2-one [Example 27] |  |  |  | ++ | ++ |  |  |
| 4-Allyl-1-(4-methoxy-benzenesulfonyl)-5-oxo-piperazine-2-hydroxamate [Example 21] |  |  |  | ± | + |  |  |
| 4-Butyl-1-(4-methoxy-benzenesulfonyl)-5-oxo-piperazine-2-hydroxamate [Example 19] | 47 | 14 | 15 | + | + | ++ |  |
| 4-Cyclopropyl-1-(4-methoxy-benzenesulfonyl)-5-oxo-piperazine-2-hydroxamate [Example 17] |  |  |  | + | + | ++ |  |
| COc1ccc(S(=O)(=O)N2CC(=O)N(CCN3CCCCC3)CC2C(=O)NO)cc1.Cl (centres unmarked) [Example 9, 1-(4-Methoxy-benzenesulfonyl)-5-oxo-4-(2-piperidin-1-yl-ethyl)-piperazine-2-hydroxamate hydrochloride] |  |  |  | − | ± |  |  |
| COc1ccc(S(=O)(=O)N2CC(=O)N(CCN3CCOCC3)CC2C(=O)NO)cc1.Cl (centres unmarked) [Example 11, 1-(4-Methoxy-benzenesulfonyl)-4-(2-morpholin-4-yl-ethyl)-5-oxo-piperazine-2-hydroxamate hydrochloride] |  |  |  | ± | + |  |  |
| COc1ccc(S(=O)(=O)N2CC(=O)N(Cc3ccccn3)CC2C(=O)NO)cc1.Cl (centres unmarked) [Example 13, 1-(4-Methoxy-benzenesulfonyl)-5-oxo-4-pyridin-2-yl-methyl-piperazine-2-hydroxamate hydrochloride] |  |  |  | ± | + | + |  |
| COc1ccc(S(=O)(=O)N2CC(=O)N(CCc3ccccn3)CC2C(=O)NO)cc1 (centres unmarked) [Example 15] | > 10000 | > 10000 | > 10000 | + | + | ++ |  |
| CCCCN1CC(C(=O)O)N(S(=O)(=O)c2ccc(OC)cc2)CC1=O (centres unmarked) [Example 26, 4-Butyl-1-(4-methoxy-benzenesulfonyl)-5-oxo-piperazine-2-carboxylic acid] |  |  |  | ± | + | ++ |  |
| CCCCCCCCN1CC(C(=O)O)N(S(=O)(=O)c2ccc(-c3ccc(Br)cc3)cc2)CC1=O (centres unmarked) [Example 33, 1-(4′-Bromo-biphenyl-4-sulfonyl)-4-octyl-5-oxo-piperazine-2-carboxylic acid] | 2430 | 2100 | 80 | + | ++ | +++ |  |
| C#CCN1CC(C(=O)O)N(S(=O)(=O)c2ccc(-c3ccc(Br)cc3)cc2)CC1=O (centres unmarked) [Example 35, 1-(4′-Bromo-biphenyl-4-sulfonyl)-5-oxo-4-prop-2-ynyl-piperazine-2-carboxylic acid] |  |  |  | ++ | +++ |  | ++ |
| O=C(O)C1CN(Cc2ccccc2)C(=O)CN1S(=O)(=O)c1ccc(-c2ccc(Br)cc2)cc1 (centres unmarked) [Example 37, 4-Benzyl-1-(4′-bromo-biphenyl-4-sulfonyl)-5-oxo-piperazine-2-carboxylic acid] |  |  |  | ++ | +++ |  | ++ |
| CCCCCCCCCCCCN1CC(C(=O)O)N(S(=O)(=O)c2ccc(-c3ccc(Br)cc3)cc2)CC1=O (centres unmarked) [Example 39, 1-(4′-Bromo-biphenyl-4-sulfonyl)-4-dodecyl-5-oxo-piperazine-2-carboxylic acid] | 8270 | 2350 | 567 | − | + |  | − |
| CCCCOCCCN1CC(C(=O)O)N(S(=O)(=O)c2ccc(-c3ccc(Br)cc3)cc2)CC1=O (centres unmarked) [Example 41, 1-(4′-Bromo-biphenyl-4-sulfonyl)-4-(3-butoxy-propyl)-5-oxo-piperazine-2-carboxylic acid] |  |  |  | ++ | +++ |  | ++ |
| CN(C)CCCN1CC(C(=O)O)N(S(=O)(=O)c2ccc(-c3ccc(Br)cc3)cc2)CC1=O (centres unmarked) [Example 43, 1-(4′-Bromo-biphenyl-4-sulfonyl)-4-(3-dimethylamino-propyl)-5-oxo-piperazine-2-carboxylic acid] |  |  |  | ++ | ++ |  | + |
| O=C(O)C1CN(CCCCCCO)C(=O)CN1S(=O)(=O)c1ccc(-c2ccc(Br)cc2)cc1 (centres unmarked) [Example 51, 1-(4′-Bromo-biphenyl-4-sulfonyl)-4-(6-hydroxy-hexyl)-5-oxo-piperazine-2-carboxylic acid] | 29 | 19 | 5 |  |  |  |  |
| CCCCCCCCC=CCCCCCCCCN1CC(C(=O)O)N(S(=O)(=O)c2ccc(-c3ccc(Br)cc3)cc2)CC1=O (centres unmarked) [Example 53, 1-(4′-Bromo-biphenyl-4-sulfonyl)-4-octadec-9-enyl-5-oxo-piperazine-2-carboxylic acid] | > 10000 | > 10000 | 220 |  |  |  |  |
| CCCCCCCCN1CC(C(=O)O)N(S(=O)(=O)c2ccc(-n3cccc3)cc2)CC1=O (centres unmarked) [Example 58, 4-Octyl-5-oxo-1-(4-pyrrol-1-yl-benzenesulfonyl)-piperazine-2-carboxylic acid] |  |  |  | ++ | ++ |  | ± |
